Data on three compounds can be found in ChEMBL document CHEMBL1132520, “Antimalarial activity of 3-hydroxyalkyl-2-methylene-propionic acid derivatives” (1999).

Activity calls are given as the source filed them. No cut-off for these calls is given here.

Experiment [1] deals with Plasmodium falciparum. Description: In vitro antimalarial activity for Plasmodium falciparum at 0.25 uM/well dose at 24 hrs in Schizont maturation assay. The class given is functional.
Experiment [2] has as its system Plasmodium falciparum. Description: In vitro inhibition of Plasmodium falciparum at 20 uM/well dose at 72 hrs in total parasite growth assay. The class given is functional.
Experiment [3] relates to Plasmodium falciparum. In words: In vitro antimalarial activity for Plasmodium falciparum at 1 uM/well dose at 24 hrs in Schizont maturation assay. The class given is functional.
In experiment [4] the test system is Plasmodium falciparum. Description: In vitro antimalarial activity for Plasmodium falciparum at 10 uM/well dose at 24 hrs in Schizont maturation assay. The format is functional.
For experiment [5], the system named is Plasmodium falciparum. Description: In vitro antimalarial activity for Plasmodium falciparum at 0.50 uM/well dose at 24 hrs in Schizont maturation assay. The format is functional.
Experiment [6] deals with Plasmodium falciparum. In words: In vitro inhibition of Plasmodium falciparum at 50 uM/well dose at 72 hrs in total parasite growth assay. The class given is functional.
Experiment [7] deals with Plasmodium falciparum. In words: In vitro inhibition of Plasmodium falciparum at 10 uM/well dose at 72 hrs in total parasite growth assay. The class given is functional.
The test system of experiment [8] is Plasmodium falciparum. Description: In vitro antimalarial activity for Plasmodium falciparum at 2.5 uM/well dose at 24 hrs in Schizont maturation assay. The format is functional.
Experiment [9] deals with Mus musculus. Description: Antimalarial activity against Plasmodium berghei evaluated in terms of mean survival time for mice (Mus musculus) at a dose of 40 mg/kg. The format is functional.
For experiment [10], the system named is Plasmodium falciparum. In words: In vitro inhibition of Plasmodium falciparum at 0.5 uM/well dose at 72 hrs in total parasite growth assay. The class given is functional.
The subject of experiment [11] is Plasmodium falciparum. Description: In vitro antimalarial activity for Plasmodium falciparum at 0.10 uM/well dose at 24 hrs in Schizont maturation assay. The format is functional.
Experiment [12] has as its system Plasmodium falciparum. In words: In vitro inhibition of Plasmodium falciparum at 2.5 uM/well dose at 72 hrs in total parasite growth assay. The class given is functional.
Experiment [13] relates to Plasmodium falciparum. In words: In vitro inhibition of Plasmodium falciparum at 1.0 uM/well dose at 72 hrs in total parasite growth assay. The class given is functional.
The subject of experiment [14] is Mus musculus. In words: In vivo anti-malarial activity against Plasmodium berghei in mice (Mus musculus) at a dose of 16 mg/kg; Active. The class given is functional, organism-based. Set-up: dose 16 mg/kg.
The subject of experiment [15] is Mus musculus. In words: Antimalarial activity against Plasmodium berghei evaluated in terms of mean survival time for mice (Mus musculus) at a dose of 160 mg/kg. The format is functional.
The test system of experiment [16] is Plasmodium falciparum. In words: In vitro antimalarial activity for Plasmodium falciparum at 5 uM/well dose at 24 hrs in Schizont maturation assay. The format is functional.
The subject of experiment [17] is Plasmodium falciparum. Description: In vitro inhibition of Plasmodium falciparum at 100 uM/well dose at 72 hrs in total parasite growth assay. The format is functional.
Experiment [18] relates to Mus musculus. In words: Antimalarial activity against Plasmodium berghei evaluated in terms of mean survival time for mice (Mus musculus) at a dose of 80 mg/kg. The class given is functional.
In experiment [19] the test system is Mus musculus. Description: Anti-malarial activity against Plasmodium berghei evaluated in terms of mean survival time for mice (Mus musculus) at a dose of 20 mg/kg. The class given is functional.
Experiment [20] concerns Plasmodium falciparum. Description: In vitro antimalarial activity for Plasmodium falciparum at 500 uM/well dose at 24 hrs in Schizont maturation assay. The format is functional.
Experiment [21] relates to Plasmodium falciparum. In words: In vitro antimalarial activity for Plasmodium falciparum at 100 uM/well dose at 24 hrs in Schizont maturation assay. The class given is functional.
For experiment [22], the system named is Mus musculus. Description: In vivo anti-malarial activity against Plasmodium berghei in mice (Mus musculus) at a dose of 80 mg/kg; Active. The class given is functional, organism-based. Set-up: dose 80 mg/kg.
In experiment [23] the test system is Plasmodium falciparum. Description: In vitro antimalarial activity for Plasmodium falciparum at 50 uM/well dose at 24 hrs in Schizont maturation assay. The class given is functional.
Experiment [24] deals with Plasmodium falciparum. In words: In vitro antimalarial activity for Plasmodium falciparum at 20 uM/well dose at 24 hrs in Schizont maturation assay. The class given is functional.
Experiment [25] has as its system Plasmodium falciparum. Description: In vitro inhibition of Plasmodium falciparum at 0.25 uM/well dose at 72 hrs in total parasite growth assay. The class given is functional.
For experiment [26], the system named is Plasmodium falciparum. Description: In vitro inhibition of Plasmodium falciparum at 5 uM/well dose at 72 hrs in total parasite growth assay. The format is functional.
Experiment [27] has as its system Mus musculus. Description: In vivo antimalarial activity against Plasmodium berghei in mice (Mus musculus); Inactive. The format is functional, organism-based.
Experiment [28] concerns Plasmodium falciparum. In words: In vitro growth inhibition against Plasmodium falciparum at a dose of 20 uM/well through total parasite growth inhibition assay over 72 hr. The class given is functional.
In experiment [29] the test system is Plasmodium falciparum. Description: In vitro inhibition of Plasmodium falciparum at 5 uM/well dose at 72 hrs in total parasite growth assay; Not determined. The class given is functional.
For experiment [30], the system named is Plasmodium falciparum. In words: In vitro inhibition of Plasmodium falciparum at 25 uM/well dose at 72 hrs in total parasite growth assay. The class given is functional.

What is called inhibition is the share of the control response that was lost under treatment. Read a high inhibition as strong suppression. With `C=C(C#N)C(O)c1cccnc1` (stereo unspecified), 0.25 µM produced 12% inhibition in experiment [1]. Also, the PGI in experiment [2] turned out to be 100%; in [6] it was 100%; in experiment [7] it was 97.5%; in experiment [10], 55%; in experiment [12] it was 82.5%; in [13], 77.5%. For the same compound, the PGI in [17] is recorded as 100%; in experiment [25] it was 20%; in [26] it was 90%. Further, at 1 µM the inhibition in [3] was 93%. The same compound gave an inhibition at 10 µM in experiment [4] of 100%. The compound further gave an inhibition at 0.5 µM in [5] of 50%. Also, the inhibition at 2.5 µM in experiment [8] was found to be 100%. The Mean survival time in [9] was 8.8 days; in experiment [15] it was 15.2 days; in [18] it was 13.4 days; in [19] it was 6.4 days. This compound gave an inhibition at 0.1 µM in experiment [11] of 0%. Besides, the result in experiment [14] and in experiment [22] was Active. Moreover, the inhibition at 5 µM in [16] is 100%. Besides, at 500 µM the inhibition in experiment [20] was 100%. This compound showed an inhibition at 100 µM in experiment [21] of 100%. The same compound came in with an inhibition at 50 µM in [23] of 100%. The compound further gave an inhibition at 20 µM in experiment [24] of 100%.
The compound `COC(=O)C(CNC(C)C)C(O)c1ccc([N+](=O)[O-])cc1` (stereo unspecified) registered an inhibition at 0.25 µM in experiment [1] of 0%. Further, in experiment [3], at 1 µM the inhibition was 14%. The inhibition at 10 µM in experiment [4] stood at 29%. The compound further displayed an inhibition at 0.5 µM in [5] of 0%. The PGI in experiment [6] worked out at 100%; in [7], 42.5%; in experiment [10], 0%; in experiment [12], 15%; in [13] it was 10%; in [17] it was 100%. Moreover, the PGI worked out at 0% in [25], 92.5% in experiment [28] and 25% in [26]. For the same compound, in experiment [8], at 2.5 µM the inhibition was 25%. The Mean survival time worked out at 8.2 days in [9], 11.8 days in experiment [15], 9.8 days in experiment [18] and 7 days in experiment [19]. The outcome in experiment [27] was inactive. The compound further yielded an inhibition at 0.1 µM in experiment [11] of 0%. In [16], this compound returned an inhibition at 5 µM of 29%. In experiment [21], the inhibition at 100 µM was 100%. Moreover, in [23], the inhibition at 50 µM is 100%. In [24], the inhibition at 20 µM was found to be 80%.
Regarding `C=C(C#N)C(O)c1ccccc1` (stereo unspecified), the inhibition at 0.25 µM in [1] was 0%. In addition, 1 µM produced 25.7% inhibition in experiment [3]. In experiment [4], this compound yielded an inhibition at 10 µM of 80%. Further, testing at 0.5 µM in experiment [5] gave an inhibition of 8.6%. For the same compound, the PGI is given as 80% in experiment [7]; 8.6% in experiment [10]; 62.8% in [12]; 25.7% in experiment [13]; 100% in experiment [17]; 65.7% in experiment [29]. This compound also yielded a PGI in experiment [30] of 85%. The same compound came in with an inhibition at 2.5 µM in [8] of 62.8%. The compound further displayed an inhibition at 0.1 µM in experiment [11] of 0%. This compound also gave an inhibition at 5 µM in experiment [16] of 65.7%. In experiment [21], this compound yielded an inhibition at 100 µM of 100%. In experiment [24], this compound yielded an inhibition at 20 µM of 85%.
